The text below walks through data of patent US9272927B2, “Method for preventing growth of microorganisms, and a combination for the prevention of microbial growth” (KEMIRA, OYJ, priority 2006, dated 2016).

Holding throughout (format): cell-based
The subject of test [1] is aerobic bacteria present in circulation water. Put plainly: Bactericidal test on circulation water from an alkaline fine paper machine, agar plate count (Example 6). The settings on record: for killing of bacteria: 3 hours; for re-growth of bacteria: single biocide only, dosages that had yielded an efficient kill, within 1 day. As for the experimental part: Circulation water (pH 8.2, ORP+169 mV) was collected from an alkaline fine paper machine (producing uncoated copy paper) and divided in 11 plastic containers. When two different biocides were dosed in to same container, the peracid was dosed first, the sample mixed thoroughly, and the second biocide was added within 5 to 10 minutes. All biocide dosages are reported as ppm (mg/l) of the commercial product, for example 20 ppm of performic acid (PFA) equilibrium product equals about 2 ppm as performic acid active substance, 12 ppm of BCDMH product equals about 4 ppm as active chlorine and 30 ppm of MCDMH product equals about 3 ppm as active chlorine. After biocide dosing the containers were capped and incubated at paper machine temperature (45° C.) with continuous agitation. The killing efficacy of different biocide dosages was measured 3 hours and 1 day after the biocide dosing using agar plate count method (PCA agar, 45° C., and 2 days).

For test [2], the system named is biofilm of a mixture of adherent bacteria (Deinococcus geothermalis, Pseudoxanthomonas taiwanensis and Meiothermus silvanus). In words: Test for destructing a biofilm on stainless steel pegs, regrowth of new biofilm stained with safranin (Example 5). The settings on record: total contact time 3 hours. Further details: key: ++++: great amounts of biofilm were formed; ++: clearly reduced formation of the new biofilm, but not the complete inhibition thereof; −: completely inhibiting the new biofilm. As for the experimental part: A test for destructing a biofilm was performed as described in the document FI 117056 B (Kemira Oyj). A biofilm was pregrown on lidplates having stainless steel pegs (3 d, 45° C., agitation at 150 rpm.). Clear filtrate of a fine paper machine served as the water (pH 7.6, ORP 71 mV), while a mixture of adherent bacteria (Deinococcus geothermalis, Pseudoxanthomonas taiwanensis and Meiothermus silvanus) grown in the laboratory was used for inoculation. After identical biofilms were grown on all the pegs of the lids, the lids were removed from the clear filtrate used for cultivation, washed with tap water and placed on plastic plates with 12 wells, one peg per well. 3.5 ml of the clear filtrate from the same paper machine, and the biocides to be tested were added in advance to each well. The pegs with biofilms were first immersed into the wells for 15 minutes, followed by removal of the plates for a moment for the addition of the other components of the biocidal combinations to the wells. Exposure to biocides was continued to attain a total contact time of 3 hours. Then, viability of the biofilms was determined by transferring the peglids to fresh 12-well plates where each well contained 2 ml of sterile cultivation broth, followed by cultivating the plates for 19 hours at 45° C. while mixing at 150 rpm. […]

For test [3], the system named is aerobic bacteria present in broke. Put plainly: Bactericidal test on dilute broke of a board machine (Example 1). The settings on record: BCDMH 30 ppm alone; contact time 24 hours. As for the experimental part:
Dilute broke of a board machine (pH 7.8, oxidation reduction potential (ORP) 40 mV) was divided into 10 separate jars, and biocides to be tested were dosed. Concentrations are expressed in ppm (mg/l) of the commercially available product. In tests where two different agents were dosed into a single jar, the jar was closed after the first pipetting, the broke sample was vigorously agitated, followed by the addition of the second agent during 5 to 10 minutes. Jars were incubated under conditions corresponding to those in the broke system (45° C., mixing), and thereafter, viable aerobic bacterial counts were determined by cultivation after exposure periods of 4 and 24 hours.
In this bactericidal test on broke, killing efficacy of BCDMH and ePAA used alone and in combinations were compared, two thirds of BCDMH being replaced in the combinations with peracetic acid used in threefold amounts. For instance BCDMH 10 ppm versus ePAA 30 ppm versus BCDMH 3.3 ppm+ePAA 20 ppm.
The combination “BCDMH 3.3 ppm+ePAA 20 ppm” means that BCDMH was added prior to ePAA.

As for `CC1(C)C(=O)NC(=O)N1Cl` [MCDMH, monochlorodimethyl hydantoin], the killing of bacteria result in test [1] (45 ppm of MCDMH alone) is “most efficient”. Moreover, the re-growth of bacteria entry in test [1] was “active re-growth of bacteria had occurred”. Also, the “formation of new biofilm” value in test [2] (60 ppm of MCDMH alone) was “++++”.

Consider `CC1(C)C(=O)N(Cl)C(=O)N1Br` [BCDMH, bromochlorodimethyl hydantoin], for which the killing of bacteria entry in test [1] (12 ppm of BCDMH alone) is on record as “most efficient”. In addition, the re-growth of bacteria result in test [1] is given as “active re-growth of bacteria had occurred”. Also, in test [3], the inhibition of regrowth result was “inhibited more effectively by BCDMH 30 ppm than PAA alone”. Further, the “formation of new biofilm” value in test [2] (16 ppm of BCDMH alone) is on record as “++”.
